Active and inactive are the calls of the source. The rule behind the calls is not given here.

The test system of assay [1] is Heliothis virescens. In words: Insecticidal activity against tobacco budworm at 500 ppm after 3 to 5 days. It is filed as functional.
Assay [2] deals with Musca domestica. In words: Insecticidal activity against housefly after 3 to 5 days. Type of assay: functional, organism-based.
Assay [3] deals with Musca domestica. In words: Insecticidal activity against housefly after 3 to 5 days relative to cypermethrin. Type of assay: functional, organism-based.
Assay [4] has as its system Musca domestica. In words: Insecticidal activity against housefly at 500 ppm after 3 to 5 days. It is filed as functional, organism-based.
Assay [5] relates to Heliothis virescens. Description: Insecticidal activity against tobacco budworm after 3 to 5 days. It is filed as functional, organism-based.
Assay [6] concerns Heliothis virescens. Description: Insecticidal activity against tobacco budworm after 3 to 5 days relative to profenofos. It is filed as functional.
The test system of assay [7] is Musca domestica. In words: Insecticidal activity against housefly after 3 to 5 days relative to permethrin. It is filed as functional.
The subject of assay [8] is Musca domestica. In words: Insecticidal activity against housefly at 2500 ppm after 3 to 5 days. It is filed as functional, organism-based.
Assay [9] relates to Heliothis virescens. In words: Insecticidal activity against tobacco budworm at 2500 ppm after 3 to 5 days. It is filed as functional, organism-based.
The subject of assay [10] is Musca domestica. Description: Insecticidal activity against housefly at 1000 ppm after 3 to 5 days. It is filed as functional, organism-based.
Assay [11] deals with Heliothis virescens. Description: Insecticidal activity against tobacco budworm at 1000 ppm after 3 to 5 days. Type of assay: functional, organism-based.

As to `CC(C)(O)CNC(=O)/C=C/C=C/Cc1ccccc1`, the Activity in the assay on Heliothis virescens [1] is 80%.

In the assay with Musca domestica [2], `CC(C)CNC(=O)/C=C/C=C/Cc1ccccc1` yielded an EC50 of 59.9 ppm. The compound also yielded an Activity in the assay on Musca domestica [3] of 1.8%. Further, the outcome with Musca domestica [4] was Active.

Consider `CC(C)CNC(=O)/C=C/C=C/CC1CCc2cc3c(cc2O1)OCO3` (stereo not given) [ERYTHROCOCCAMIDE A], for which the EC50 came to 20.2 ppm in the assay on Musca domestica [2], 3 ppm in the assay with Musca domestica [3] and 74.2 ppm in the assay with Heliothis virescens [5]. Besides, the result in the assay on Musca domestica [4] was Active. The Activity in the assay with Heliothis virescens [6] amounted to 9.9%; with Musca domestica [7] it was 9%.

For the compound `CC(C)CNC(=O)/C=C/C=C/CC1CCc2ccc(Cl)cc2C1` (stereo not given), the Activity in the assay on Musca domestica [7] was 40%.

Take `CC(C)CNC(=O)/C=C/c1ccc2c(c1)OCO2`: the result in the assay on Musca domestica [8] and in the assay with Heliothis virescens [9] was inactive.

As for `COc1c2c(cc3ccoc13)CCC(C/C=C/C=C/C(=O)NCC(C)C)O2` (stereo not given), the outcome in the assay with Musca domestica [4] and in the assay with Heliothis virescens [1] was inactive.

For `CCCCC/C=C/C=C/C(=O)NCC(C)C`, the outcome in the assay on Musca domestica [10] and in the assay on Heliothis virescens [11] was inactive. For the same compound, in the assay on Musca domestica [8], the outcome was Active.

As to `CC(C)CNC(=O)CC1CCc2cc3c(cc2O1)OCO3` (stereo not given), the outcome with Musca domestica [4] and with Heliothis virescens [1] was inactive.

(Values after ChEMBL document CHEMBL1150880, “Novel and insecticidal isobutylamides from dinosperma erythrococca” (J Nat Prod, 1998).)
